Consider 25 compounds from patent US20200069691A1, “HETEROCYCLIC COMPOUNDS AS HIV PROTEASE INHIBITORS” (Merck Sharp & Dohme Corp., priority 2016, published 2020).

The term IC50 denotes the concentration that inhibits the measured activity by half.

The target in the assay is T1, wild-type HIV-1 protease (Human immunodeficiency virus type 1 group M subtype B, UniProt P04585).
T1 construct: Escherichia coli expressed wild-type HIV-1 protease protein
The assay is described as follows: Assay for Inhibition of Microbial Expressed HIV Protease (peptide substrate cleavage, LC-MS/MS readout). The class given is biochemical. The conditions noted are these: E. coli expressed wild-type HIV-1 protease, mean of at least two independent experiments, read-out: HIV Pr Enzyme HIV1 PR IC50. Summed up:
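Cleavage of Val-Ser-Gln-Asn-(β-naphthyl)Ala-Pro-Ile-Val (400 μM) by recombinant HIV-1 protease ([…]) ran 1 h at 30 °C after a 30 min room-temperature inhibitor preincubation in 50 mM sodium acetate pH 5.5. Product peak areas by LC-MS/MS gave inhibition; values average at least two independent runs.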

On to `CN(C)C(=O)C1c2ccccc2CN1C(=O)c1cccc(CN2C(=N)NC(c3ccccc3)(c3ccccc3)C2=O)c1` (stereo not shown) [Compound 299, 2-({3-[(2-imino-5-oxo-4,4-diphenylimidazolidin-1-yl)methyl]phenyl}carbonyl)-N,N-dimethyl-2,3-dihydro-1H-isoindole-1-carboxamide], for which the concentration for half-maximal inhibition (IC50) worked out at 43.9 nM.

For the compound `CC(C)CC1(c2ccccc2)NC(=N)N(Cc2ccc(C(F)(F)F)c(C(=O)N3CCC(F)(F)C3)c2)C1=O` (stereo not shown) [Compound 177, 3-{3-[(3,3-difluoropyrrolidin-1-yl)carbonyl]-4-(trifluoromethyl)benzyl}-2-imino-5-(2-methylpropyl)-5-phenylimidazolidin-4-one], the IC50 amounted to 70.3 nM.

With `CC(C)CCC1(c2ccccc2)NC(=N)N(Cc2cc(C(=O)N3Cc4nccnc4C3)ccn2)C1=O` (stereo not shown) [Compound 400, 3-{[4-(5,7-dihydro-6H-pyrrolo[3,4-b]pyrazin-6-ylcarbonyl)pyridin-2-yl]methyl}-2-imino-5-(3-methylbutyl)-5-phenylimidazolidin-4-one], the IC50 came out at 25.6 nM.

Consider `N=C1NC(c2ccccc2)(c2ccccc2)C(=O)N1Cc1cccc(C(=O)N2CCN(c3ncccn3)CC2)c1` [Compound 230, 2-imino-5,5-diphenyl-3-{3-[(4-pyrimidin-2-ylpiperazin-1-yl)carbonyl]benzyl} imidazolidin-4-one], for which the half-maximal inhibitory concentration (IC50) is 13.1 nM.

Regarding `COC(=O)Nc1ncc2c(n1)CN(C(=O)c1cccc(CN3C(=N)NC(c4ccccc4)(c4ccccc4)C3=O)c1)C2` [Compound 190, methyl [6-({3-[(2-imino-5-oxo-4,4-diphenylimidazolidin-1-yl)methyl]phenyl}carbonyl)-6,7-dihydro-5H-pyrrolo[3,4-d]pyrimidin-2-yl]carbamate], the IC50 is 3.86 nM.

`N=C1N[C@](CCC2CC2)(c2cccc(F)c2)C(=O)N1Cc1ccc(C(F)(F)F)c(C(=O)N2CCn3c(nnc3C(F)(F)F)C2)c1` [Compound 103, (5R)-5-(2-cyclopropylethyl)-5-(3-fluorophenyl)-2-imino-3-[4-(trifluoromethyl)-3-{[3-(trifluoro-methyl)-5,6-dihydro[1,2,4]triazolo-[4,3-a]pyrazin-7(8H)-yl]carbonyl}-benzyl]imidazolidin-4-one]: the IC50 was found to be 23.8 nM.

As to `C[C@@H](c1cccc(C(=O)N2Cc3ccccc3C2)c1)N1C(=N)NC(c2ccc(F)cc2)(c2ccc(F)cc2)C1=O` [Compound 325, 3-{(1S)-1-[3-(1,3-dihydro-2H-isoindol-2-ylcarbonyl)phenyl]ethyl}-5,5-bis(4-fluorophenyl)-2-iminoimidazolidin-4-one], the IC50 turned out to be 58.5 nM.

As to `Cn1ncc2c1CN(C(=O)c1cccc(CN3C(=N)NC(c4ccccc4)(c4ccccc4)C3=O)c1)C2` [Compound 241, 2-imino-3-{3-[(1-methyl-4,6-dihydropyrrolo [3,4-c]pyrazol-5(1H)-yl)carbonyl]benzyl}-5,5-diphenylimidazolidin-4-one], the IC50 is 15.6 nM.

For `N=C1NC(c2ccccc2)(c2ccccc2)C(=O)N1Cc1cccc(C(=O)N2CCc3cc(C(F)(F)F)ccc3C2)c1` [Compound 336, 2-imino-5,5-diphenyl-3-(3-{[6-(trifluoromethyl)-3,4-dihydroisoquinolin-2(1H)-yl]carbonyl}benzyl) imidazolidin-4-one], the IC50 came out at 71 nM.

Consider `CC(C)CC[C@]1(c2ccccc2)NC(=N)N(Cc2ccc(S(C)(=O)=O)c(C(=O)N3Cc4nccnc4C3)c2)C1=O` [Compound 126, (5R)-3-[3-(5,7-dihydro-6H-pyrrolo[3,4-b]pyrazin-6-ylcarbonyl)-4-(methylsulfonyl)-benzyl]-2-imino-5-(3-methylbutyl)-5-phenylimidazolidin-4-one], for which the concentration for half-maximal inhibition (IC50) was found to be 60.2 nM.

Turning to `N=C1N[C@](C[C@@H]2CCOC2)(c2ccccc2)C(=O)N1Cc1ccc(C(F)(F)F)c(C(=O)N2Cc3nccnc3C2)c1` [Compound 70, (5R)-3-[3-(5,7-dihydro-6H-pyrrolo[3,4-b]pyrazin-6-ylcarbonyl)-4-(trifluoromethyl)-benzyl]-2-imino-5-phenyl-5-[(3R)-tetrahydrofuran-3-ylmethyl]imidazolidin-4-one], the concentration for half-maximal inhibition (IC50) is 8.89 nM.

On to `CC(C)C[C@]1(c2ccccc2)NC(=N)N([C@H](C)c2cccc(C(=O)N3Cc4nccnc4C3)c2)C1=O` [Compound 237, 3-{(1R)-1-[3-(5,7-dihydro-6H-pyrrolo[3,4-b]pyrazin-6-ylcarbonyl)phenyl]ethyl}-2-imino-5-(2-methylpropvl)-5-phenylimidazolidin-4-one], for which the IC50 amounted to 14.5 nM.

Turning to `N=C1NC(c2ccccc2)(c2ccccc2)C(=O)N1Cc1ccc(Cl)c(C(=O)N2Cc3cccnc3C2)c1` [Compound 368, 3-[4-chloro-3-(5,7-dihydro-6H-pyrrolo[3,4-b]pyridin-6-ylcarbonyl)benzyl]-2-imino-5,5-diphenylimidazolidin-4-one], the half-maximal inhibitory concentration (IC50) stood at 5.42 nM.

Regarding `N=C1N[C@](CCCC(F)(F)F)(c2ccc(F)cc2)C(=O)N1Cc1ccc(C(F)(F)F)c(C(=O)N2Cc3cnc(-c4cnn5c4CCC5)nc3C2)c1` [Compound 34, (5R)-3-[3-{[2-(5,6-dihydro-4H-pyrrolo[1,2-b]pyrazol-3-yl)-5,7-dihydro-6H-pyrrolo[3,4-d]pyrimidin-6-yl]carbonyl}-4-(trifluoromethyl)benzyl]-5-(4-fluorophenyl)-2-imino-5-(4,4,4-trifluorobutyl)imidazolidin-4-one], the concentration for half-maximal inhibition (IC50) was determined as 3.36 nM.

Take `N=C1NC(c2ccc(F)cc2)(c2ccc(F)cc2)C(=O)N1Cc1cccc(C(=O)N2Cc3ccc(C(F)(F)F)cc3C2)c1` [Compound 317, 5,5-bis(4-fluorophenyl)-2-imino-3-(3-{[5-(trifluoromethyl)-1,3-dihydro-2H-isoindol-2-yl]carbonyl}benzyl)-imidazolidin-4-one]: the IC50 turned out to be 54.9 nM.

As for `N=C1N[C@](CCCC(F)(F)F)(c2ccc(F)cc2)C(=O)N1Cc1ccc(C(F)(F)F)c(C(=O)N2Cc3cnc(-c4ccc(-n5nccn5)cc4)nc3C2)c1` [Compound 117, (5R)-5-(4-fluorophenyl)-2-imino-3-[3-({2-[4-(2H-1,2,3-triazol-2-yl)phenyl]-5,7-dihydro-6H-pyrrolo[3,4-d]pyrimidin-6-yl}carbonyl)-4-(trifluoromethyl)-benzyl]-5-(4,4,4-trifluorobutyl)-imidazolidin-4-one], the half-inhibitory concentration (IC50) came out at 38.5 nM.

`N=C1NC(c2ccccc2)(c2ccccc2)C(=O)N1Cc1cccc(C(=O)N2CCc3c(Cl)cccc3C2)c1` [Compound 281, 3-{3-[(5-chloro-3,4-dihydroisoquinolin-2(1H)-yl)carbonyl]benzyl}-2-imino-5,5-diphenylimidazolidin-4-one]: the concentration for half-maximal inhibition (IC50) was 31.1 nM.

Consider `CCCC1(c2ccccc2)NC(=N)N(Cc2cccc(C(=O)N3CCN(c4ncccn4)CC3)c2)C1=O` (stereo not shown) [Compound 320, 2-imino-5-phenyl-5-propyl-3-{3-[(4-pyrimidin-2-ylpiperazin-1-yl)carbonyl]benzyl} imidazolidin-4-one], for which the IC50 was found to be 56.7 nM.

Regarding `CCC(c1cccc(C(=O)N2Cc3cncnc3C2)c1)N1C(=N)NC(c2ccccc2)(c2ccccc2)C1=O` (stereo not shown) [Compound 263, 3-{1-[3-(5,7-dihydro-6H-pyrrolo[3,4-d]pyrimidin-6-ylcarbonyl)phenyl]propyl}-2-imino-5,5-diphenylimidazolidin-4-one], the IC50 stood at 24.7 nM.

As for `CS(=O)(=O)Nc1cccc(-c2ncc3c(n2)CN(C(=O)c2cc(CN4C(=N)N[C@](CCCC(F)(F)F)(c5ccc(F)cc5)C4=O)ccc2C(F)(F)F)C3)c1` [Compound 44, N-[3-(6-{[5-{[(4R)-4-(4-fluorophenyl)-2-imino-5-oxo-4-(4,4,4-trifluorobutyl)imidazolidin-1-yl]methyl}-2-(trifluoromethyl)-phenyl]carbonyl}-6,7-dihydro-5H-pyrrolo[3,4-d]pyrimidin-2-yl)phenyl]methanesulfonamide], the IC50 was determined as 4.55 nM.

In the case of `N=C1N[C@](CCCC(F)(F)F)(c2ccc(F)cc2)C(=O)N1Cc1ccc(C(F)(F)F)c(C(=O)N2Cc3cnc(N)nc3C2)c1` [Compound 57, (5R)-3-{3-[(2-amino-5,7-dihydro-6H-pyrrolo[3,4-d]pyrimidin-6-yl)carbonyl]-4-(trifluoromethyl)-benzyl}-5-(4-fluorophenyl)-2-imino-5-(4,4,4-trifluorobutyl)-imidazolidin-4-one], the IC50 is 6.24 nM.

As for `N=C1NC(c2ccccc2)(c2ccccc2)C(=O)N1Cc1ccc(C(F)(F)F)c(C(=O)N2Cc3nccnc3C2)c1` [Compound 143, 3-[3-(5,7-dihydro-6H-pyrrolo[3,4-b]pyrazin-6-ylcarbonyl)-4-(trifluoromethyl)benzyl]-2-imino-5,5-diphenylimidazolidin-4-one], the IC50 was determined as 3.43 nM.

As for `CC(C)CC[C@]1(c2ccc(F)cc2)NC(=N)N(C(CCCc2ccccc2)c2ccc(C(F)(F)F)c(C(=O)N3Cc4nccnc4C3)c2)C1=O` (stereo partly drawn) [Compound 2, (5R)-3-{1-[3-(5,7-dihydro-6H-pyrrolo[3,4-b]pyrazin-6-ylcarbonyl)-4-(trifluoro-methyl)phenyl]-4-phenylbutyl}-5-(4-fluorophenyl)-2-imino-5-(3-methylbutyl)imidazolidin-4-one], the IC50 came out at 0.14 nM.

With `CC(C)CC[C@]1(c2ccccc2)NC(=N)N(Cc2cc(F)cc(C(=O)N3Cc4nccnc4C3)c2)C1=O` [Compound 207, (5R)-3-[3-(5,7-dihydro-6H-pyrrolo[3,4-b]pyrazin-6-ylcarbonyl)-5-fluorobenzyl]-2-imino-5-(3-methylbutyl)-5-phenylimidazolidin-4-one], the IC50 is 8.35 nM.

In the case of `N=C1NC(c2ccc(F)cc2)(c2ccc(F)cc2)C(=O)N1Cc1ccc(C(F)(F)F)c(C(=O)N2CCCC2)c1` [Compound 180, 5,5-bis(4-fluorophenyl)-2-imino-3-[3-(pyrrolidin-1-ylcarbonyl)-4-(trifluoromethyl)benzyl] imidazolidin-4-one], the 50% inhibitory concentration (IC50) amounted to 78.8 nM.
